Measurements as given in ChEMBL document CHEMBL1130457, “Design and synthesis of a novel class of thrombin inhibitors incorporating heterocyclic dipeptide surrogates” (Bioorg Med Chem Lett, 1997).

Key:
[1] = target: Tissue-type plasminogen activator (Homo sapiens, UniProt P00750); test: Inhibitory concentration required to inhibit human Tissue type plasminogen activator was determined
Coagulation factor X = Coagulation factor X (Homo sapiens, UniProt P00742)
Plasminogen = Plasminogen (Homo sapiens, UniProt P00747)
Prothrombin = Prothrombin (Homo sapiens, UniProt P00734)
Description: Inhibitory concentration required to inhibit human thrombin enzyme was determined

Serine protease 1 = Serine protease 1 (Homo sapiens, UniProt P07477)
Serine protease 1, sequence (P07477 whole entry): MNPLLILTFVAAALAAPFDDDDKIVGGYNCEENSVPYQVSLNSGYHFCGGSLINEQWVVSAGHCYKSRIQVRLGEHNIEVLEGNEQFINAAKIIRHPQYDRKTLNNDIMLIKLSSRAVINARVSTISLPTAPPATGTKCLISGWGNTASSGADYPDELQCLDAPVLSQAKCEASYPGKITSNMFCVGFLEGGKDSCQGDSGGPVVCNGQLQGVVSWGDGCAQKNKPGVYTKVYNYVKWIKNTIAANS

Tissue-type plasminogen activator, sequence (P00750 whole entry): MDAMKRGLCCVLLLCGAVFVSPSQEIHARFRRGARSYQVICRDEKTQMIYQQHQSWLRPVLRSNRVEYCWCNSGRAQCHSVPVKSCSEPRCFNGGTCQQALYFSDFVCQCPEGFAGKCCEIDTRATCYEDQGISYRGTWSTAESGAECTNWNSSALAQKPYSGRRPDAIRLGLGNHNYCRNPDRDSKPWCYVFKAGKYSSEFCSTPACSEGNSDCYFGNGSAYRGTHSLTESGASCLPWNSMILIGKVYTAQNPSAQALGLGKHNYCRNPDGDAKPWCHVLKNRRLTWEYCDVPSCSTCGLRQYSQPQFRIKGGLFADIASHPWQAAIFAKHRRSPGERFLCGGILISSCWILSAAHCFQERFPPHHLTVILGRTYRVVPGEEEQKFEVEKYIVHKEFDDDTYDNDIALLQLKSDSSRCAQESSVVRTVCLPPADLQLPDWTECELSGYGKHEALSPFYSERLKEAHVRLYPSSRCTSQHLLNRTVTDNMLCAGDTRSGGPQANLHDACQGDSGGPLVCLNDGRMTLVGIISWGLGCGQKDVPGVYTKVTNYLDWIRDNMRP
Coagulation factor X, sequence (P00742 41-179 limits assumed): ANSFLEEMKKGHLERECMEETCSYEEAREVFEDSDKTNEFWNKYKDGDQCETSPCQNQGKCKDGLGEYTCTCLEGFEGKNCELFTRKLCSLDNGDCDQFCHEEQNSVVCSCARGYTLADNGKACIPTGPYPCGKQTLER
Coagulation factor X, sequence (P00742 235-488 limits assumed): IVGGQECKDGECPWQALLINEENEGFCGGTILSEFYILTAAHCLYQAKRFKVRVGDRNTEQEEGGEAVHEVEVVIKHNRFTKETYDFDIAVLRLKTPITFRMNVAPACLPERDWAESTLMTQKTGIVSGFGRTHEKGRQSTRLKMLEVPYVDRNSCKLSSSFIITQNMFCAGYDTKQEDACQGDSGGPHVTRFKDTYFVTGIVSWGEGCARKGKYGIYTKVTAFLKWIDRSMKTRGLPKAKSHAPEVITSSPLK
Plasminogen, sequence (P00747 97-580 limits assumed): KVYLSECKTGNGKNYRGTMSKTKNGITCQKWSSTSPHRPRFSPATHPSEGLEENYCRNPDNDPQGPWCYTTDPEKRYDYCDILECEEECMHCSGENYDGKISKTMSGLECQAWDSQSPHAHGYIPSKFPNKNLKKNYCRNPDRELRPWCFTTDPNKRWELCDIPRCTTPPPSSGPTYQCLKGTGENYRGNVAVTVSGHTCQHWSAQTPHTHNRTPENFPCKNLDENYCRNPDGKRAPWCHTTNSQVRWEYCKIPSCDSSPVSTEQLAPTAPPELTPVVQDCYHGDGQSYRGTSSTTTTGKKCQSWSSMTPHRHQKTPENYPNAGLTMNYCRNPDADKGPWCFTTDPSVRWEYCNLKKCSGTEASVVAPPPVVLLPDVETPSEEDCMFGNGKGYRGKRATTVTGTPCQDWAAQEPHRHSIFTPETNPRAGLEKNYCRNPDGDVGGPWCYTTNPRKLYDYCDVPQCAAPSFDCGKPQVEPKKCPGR
Plasminogen, sequence (P00747 581-810 limits assumed): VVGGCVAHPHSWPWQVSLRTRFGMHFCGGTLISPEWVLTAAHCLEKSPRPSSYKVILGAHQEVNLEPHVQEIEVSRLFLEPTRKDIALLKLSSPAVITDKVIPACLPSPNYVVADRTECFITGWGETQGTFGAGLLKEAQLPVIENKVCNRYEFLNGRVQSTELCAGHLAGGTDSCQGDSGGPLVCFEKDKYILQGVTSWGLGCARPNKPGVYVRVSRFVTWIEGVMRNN

Row | SMILES | IC50 [1] [µM] | IC50 (Coagulation factor X) [µM] | IC50 (Plasminogen) [µM] | IC50 (Prothrombin) [µM] | IC50 (Serine protease 1) [µM]
1 | Cc1ccc(NS(=O)(=O)Cc2ccccc2)c(=O)n1CC(=O)N[C@H]1CCCN(C(=N)N)C1O (stereo not given in full) | > 2.5 | 0.447 | > 2.5 | 0.000467 | 0.0109
2 | N=C(N)N1CCC[C@H](NC(=O)CN2CCC[C@H](NS(=O)(=O)Cc3ccccc3)C2=O)C1O (stereo not given in full) | > 2.5 | 2.5 | > 2.5 | 0.0062 | 0.791
3 | Cc1ncc(NS(=O)(=O)Cc2ccccc2)c(=O)n1CC(=O)N[C@H]1CCCN(C(=N)N)C1O (stereo not given in full) | > 2.5 | 0.905 | > 2.5 | 0.00232 | 0.16
4 | Cn1cc(NS(=O)(=O)Cc2ccccc2)c(=O)n(CC(=O)N[C@H]2CCCN(C(=N)N)C2O)c1=O (stereo not given in full) | > 2.5 | 2.5 | > 2.5 | 0.141 | 0.396
5 | N=C(N)N1CCC[C@H](NC(=O)Cn2cccc(NS(=O)(=O)Cc3ccccc3)c2=O)C1O (stereo not given in full) | > 2.5 | 0.0209 | > 2.5 | 0.000505 | 0.0262
